Where a name gives a salt, the structure may show the parent alone.
Target: T1, murine Nurr1 receptor (Mus musculus, UniProt Q06219)
T1 construct: a cell line (N2A) endogenously expressing the murine Nurr1 receptor; host or cells: Neuro-2A (N2A) mouse neuroblastoma cells stably transfected with 8NBRE-luciferase
Assay: In vitro activity on N2A cells (8NBRE-luciferase reporter)
Assay type: cell-based
Conditions: N2A cell line endogenously expressing murine Nurr1, stably transfected with NBRE-luciferase; 24 hours incubation
Procedure: Evaluation of the In Vitro Activity on N2A Cells
The activity of the compounds according to the invention was evaluated on a cell line (N2A) endogenously expressing the murine Nurr1 receptor and stably transfected with the NOT binding response element (NBRE) coupled to the luciferase reporter gene. The EC50 values are between 0.01 and 1000 nM. The tests were performed according to the procedure described hereinbelow.
The cell line Neuro-2A is obtained from a standard commercial source (ATCC). The clone Neuro-2A was obtained from a spontaneous tumour originating from a strain of albino mice A by R. J Klebe et al. This line Neuro-2A is then stably transfected with 8NBRE-luciferase. The N2A-8NBRE cells are cultured to the point of confluence in 75 cm^2 culture flasks containing DMEM supplemented with 10% foetal calf serum, 4.5 g/L of glucose and 0.4 mg/ml of geneticin. After culturing for one week, the cells are recovered with 0.25% trypsin for 30 seconds and then resuspended in DMEM without phenol red, containing 4.5 g/L of glucose and 10% Hyclone defatted serum, and placed in white, transparent-based 96-well plates. The cells are deposited at a rate of 60 000 per well in 75 μL for 24 hours before adding the products. The products are applied in 25 μL and incubated for a further 24 hours. On the day of measurement, an equivalent volume (100 μL) of Steadylite is added to each well, and the wells are then left for 30 minutes to obtain complete lysis of the cells and maximum production of the signal. The plates are then measured in a microplate luminescence counter, after having been sealed with an adhesive film. The products are prepared in the form of a 10^−2 M stock solution, and then diluted in 100% of DMSO. Each concentration of product is prediluted in culture medium before incubation with the cells thus containing 0.625% final of DMSO.

T1 sequence (Q06219 whole entry): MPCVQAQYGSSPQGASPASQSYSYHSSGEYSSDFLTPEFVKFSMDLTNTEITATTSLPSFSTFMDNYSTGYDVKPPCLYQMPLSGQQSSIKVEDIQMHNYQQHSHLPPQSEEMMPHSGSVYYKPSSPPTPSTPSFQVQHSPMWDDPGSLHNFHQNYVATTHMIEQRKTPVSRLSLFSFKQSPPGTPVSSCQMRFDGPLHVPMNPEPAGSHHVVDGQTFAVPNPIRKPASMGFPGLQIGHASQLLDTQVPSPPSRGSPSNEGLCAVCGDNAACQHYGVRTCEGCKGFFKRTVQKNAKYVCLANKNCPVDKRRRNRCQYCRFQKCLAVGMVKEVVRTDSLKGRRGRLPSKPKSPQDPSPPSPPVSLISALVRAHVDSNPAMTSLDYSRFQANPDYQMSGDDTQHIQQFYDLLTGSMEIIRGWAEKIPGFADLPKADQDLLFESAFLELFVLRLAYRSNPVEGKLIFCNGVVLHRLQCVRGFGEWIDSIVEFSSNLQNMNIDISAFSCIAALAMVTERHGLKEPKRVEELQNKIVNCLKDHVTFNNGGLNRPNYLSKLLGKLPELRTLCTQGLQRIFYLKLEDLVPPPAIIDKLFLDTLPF

Molecule | EC50 [nM]
CSc1ccc2nc(C(=O)Nc3ccccc3)cn2c1 [Example 14, 6-(Methylthio)-N-phenylimidazo[1,2-a]pyridine-2-carboxamide and its hydrobromide (1:1)] | 2
6-(Isopropylamino)-N-phenylimidazo[1,2-a]pyridine-2-carboxamide and its hydrochloride (1:1) [Example 2] | 1.6
CS(=O)(=O)c1ccc2nc(C(=O)Nc3ccccc3)cn2c1 [Example 16, 6-(Methylsulfonyl)-N-phenylimidazo[1,2-a]pyridine-2-carboxamide and its hydrobromide (1:1)] | 16

Reference: patent publication US20100317620A1, “N-PHENYLIMIDAZO[1,2-a]PYRIDINE-2-CARBOXAMIDE COMPOUNDS, PREPARATION AND THERAPEUTIC USE THEREOF” (sanofi-aventis, priority 2008, published 2010)
